This test concerns 695427-040-R-J1-PDC complex spheroids, viability percent T/C. Description: Anticancer human tumor 695427-040-R-J1-PDC patient-derived colon adenocarcinoma cell line growth inhibition [GQUAD]. The note with it: for viability, T/C: stronger effect = lower value. From the text: DNA G-quadruplex Stabilizer Agents in Combinations in Complex Spheroids
A high-throughput screen of multi-cell type tumor spheroids was designed to identify active combinations of DNA G-quadruplex stabilizer agents and targeted small molecules. Complex spheroids include a stromal component modeled by human endothelial cells (HUVEC) and fibroblasts modeled by human mesenchymal stem cells (MSCs). The concentration ranges selected for each drug and investigational agent were based upon clinically achievable concentrations if the clinical Cmax of the agent was known.
Compounds. The drugs and investigational agents: pidnarulex (CX-5461; NSC782164), APTO-253 (NSC789042), BRACO-19 (NSC847499), peposertib (NSC802822), ceralasertib (NSC780249), elimusertib (NSC800525), camonsertib (NSC841442), AZD-1390 (NSC803789), olaparib (NSC753686), talazoparib (NSC767125), ART-558 (NSC835418), sotorasib (NSC818433), MRTX-1133 (NSC836407), SN-38 (NSC673596), topotecan (NSC609699), etoposide (NSC141540), doxorubicin (NSC123127), gemcitabine (NSC613327), 5-fluorouracil (NSC19893), paclitaxel (NSC125973), vemurafenib (NSC761431), panobinostat (NSC761190), R-306465 (JNJ-16241199; NSC773264), adavosertib (NSC754352), TP-3654 (NSC805149), carboplatin (NSC241240), KSQ-4279 (NSC840948), and staurosporine (NSC755774) were obtained from the National Cancer Institute (NCI) Developmental Therapeutics Program Chemical Repository (34). The FDA-approved anticancer drug set is available from the NCI Developmental Therapeutics Program. […] The stock solutions were prepared in dimethyl sulfoxide (DMSO, Sigma-Aldrich, St. Louis, MO, cat. D2650) at 800-fold the tested concentration and stored at -70 degrees C prior to their use. All drugs and investigational agents were tested over a range starting from a high concentration at or near the clinical Cmax and decreasing in half-log increments. If the clinical Cmax for an agent had not been determined, the highest concentration tested was 10 microM.
2.3 Cell Culture. All cells were maintained in an incubator at 37 degrees C and 5% CO2 with 95% humidity. The PDC lines were cultured according to standard operating procedures established by the NCI PDMR. All PDCs were thawed and cultured in Matrigel-coated flasks prepared with a working solution of 1X Ham's F-12 nutrient mix, without supplementation (Invitrogen, cat. 11765054), 100 U/mL penicillin-streptomycin (Invitrogen, cat. 15140122), and 2.5% Matrigel (Corning Inc., cat. 354248) for the first three passages. The 857933-349-R-J2-PDC line was cultured in 6C/Colon 1B media, which includes advanced DMEM/F-12 (Thermo Fisher Scientific, cat. 12634028), 10 mM HEPES (Thermo Fisher Scientific, cat. 15630080), 1X GlutaMAX supplement (Thermo Fisher Scientific, cat. 35050061), 0.1 mg/mL primocin (InvivoGen, cat. ant-pm-2), 10% defined fetal bovine serum, heat inactivated (HyClone Laboratories Inc., cat. SH30070.03HI), 50% L-WRN conditioned media (ATCC, cat. CRL-3276), 1.25 mM N-Acetyl-L-cysteine (Sigma-Aldrich, cat. A9165), 10 mM nicotinamide (Sigma-Aldrich, cat. N0636), 1X B-27 supplement (Thermo Fisher Scientific, cat. 17504044), 1X N-2 supplement (Thermo Fisher Scientific, cat. 17502048), 10 microM Y-27632 dihydrochloride (Tocris Bioscience, cat. 1254), and 50 ng/mL human EGF recombinant protein (Thermo Fisher Scientific, cat. PHG0311). The 485176-168-R4-J1-PDC line was cultured in Panc media, which includes all 6C/Colon 1B media components plus 100 ng/mL human FGF-10 (Thermo Fisher Scientific, cat. 100-26), 500 nM SB-431542 (Selleckchem, cat. S1067), and gastrin (Tocris, cat. 3006).
[…]

Molecules are shown by their SMILES. Values joined by “and” are separate entries in the source; they are usually repeats but may differ in a detail not shown here. Equal values may be shown once.
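Note: spheroids exposed to compounds for seven days before readout.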

One may read the viability, T/C as the result in the treated group divided by that in the control group, in per cent. What is called IC50 is the point on the concentration scale where inhibition reaches its midpoint. Consider `CC1COCCN1c1cc(C2(S(C)(=N)=O)CC2)nc(-c2ccnc3[nH]ccc23)n1` (stereo not given), for which the viability, T/C (compound 0.0316 µM) was 98.2% and 95.8% and 104%; the viability, T/C (compound 0.1 µM) is 80.6% and 102% and 90.9%; the viability, T/C (compound 0.316 µM) is 82% and 94.1% and 92.3%; the viability, T/C (compound 1 µM) was 85.7% and 94.6% and 87.3%; the viability, T/C (compound 3.16 µM) is 59.1% and 88.3% and 68.5%; the viability, T/C (compound 10 µM) is 55.5% and 73.5% and 54.2%. Under “curve of compound”, the IC50 is greater than 10 µM.

For `CCCS(=O)(=O)Nc1ccc(F)c(C(=O)c2c[nH]c3ncc(-c4ccc(Cl)cc4)cc23)c1F`, the viability, T/C runs as follows: (compound 0.0316 µM) 96% and 108% and 99.2%; (compound 0.1 µM) 92.3% and 101% and 87.5%; (compound 0.316 µM) 90.3% and 110% and 114%; (compound 1 µM) 79.9% and 102% and 101%; (compound 3.16 µM) 65.4% and 116% and 103%; (compound 10 µM) 58.2% and 67.2% and 40.1%. Besides, under “curve of compound”, the IC50 was > 10 µM and 8.3 µM.

As for `CC1COCCN1c1cc(-c2ccnn2C)c2ccnc(-c3ccn[nH]3)c2n1` (stereo not given), the viability, T/C is 88.2% and 92.1% and 81.5% (compound 0.0316 µM); 71.7% and 79.9% and 54.3% (compound 0.1 µM); 50.6% and 61.6% and 45.6% (compound 0.316 µM); 34.4% and 49.4% and 35.4% (compound 1 µM); 27.7% and 46.1% and 23% (compound 3.16 µM); 26.8% and 40.4% and 24.8% (compound 10 µM). The IC50 (curve of compound) is 0.318 µM and 0.979 µM and 0.181 µM.

Take `COc1cc(C2c3cc4c(cc3C(OC3OC5COC(C)OC5C(O)C3O)C3COC(=O)C23)OCO4)cc(OC)c1O` (stereo not given): the viability, T/C runs as follows: (compound 0.0316 µM) 96.9% and 98.6% and 100%; (compound 0.1 µM) 90.3% and 81.4% and 90%; (compound 0.316 µM) 110% and 86.1% and 104%; (compound 1 µM) 97.4% and 90% and 94.7%; (compound 3.16 µM) 95.6% and 68.2% and 90.1%; (compound 10 µM) 77.5% and 61.8% and 75.3%. Besides, the IC50 (curve of compound) is greater than 10 µM.

On to `COc1cc(C2c3cc4c(cc3C(OC3OC5COC(C)OC5C(O)C3O)C3COC(=O)C23)OCO4)cc(OC)c1O` (stereo not given) + CN(C)c1ccc(Nc2c3ccc(NC(=O)CCN4CCCC4)cc3nc3cc(NC(=O)CCN4CCCC4)ccc23)cc1, for which the IC50 was greater than 10 µM (curve of first compound, second compound 0.0316 µM); greater than 10 µM (curve of first compound, second compound 0.1 µM); greater than 10 µM (curve of first compound, second compound 0.316 µM); greater than 10 µM (curve of first compound, second compound 1 µM); greater than 10 µM (curve of first compound, second compound 3.16 µM); greater than 10 µM (curve of first compound, second compound 10 µM). Further, the viability, T/C by setting is: (second compound 0.0316 µM, first compound 0.0316 µM) 108%; (second compound 0.0316 µM, first compound 0.1 µM) 90.1%; (second compound 0.0316 µM, first compound 0.316 µM) 95.7%; (second compound 0.0316 µM, first compound 1 µM) 97.8%; (second compound 0.0316 µM, first compound 3.16 µM) 85.2%; (second compound 0.0316 µM, first compound 10 µM) 80%. Further, the viability, T/C was 88.1% (second compound 0.1 µM, first compound 0.0316 µM); 91.6% (second compound 0.1 µM, first compound 0.1 µM); 95.7% (second compound 0.1 µM, first compound 0.316 µM); 83.5% (second compound 0.1 µM, first compound 1 µM); 89.8% (second compound 0.1 µM, first compound 3.16 µM); 76.9% (second compound 0.1 µM, first compound 10 µM). Moreover, the viability, T/C was 100% (second compound 0.316 µM, first compound 0.0316 µM); 91.5% (second compound 0.316 µM, first compound 0.1 µM); 88.1% (second compound 0.316 µM, first compound 0.316 µM); 89.2% (second compound 0.316 µM, first compound 1 µM); 90.5% (second compound 0.316 µM, first compound 3.16 µM); 76.7% (second compound 0.316 µM, first compound 10 µM). Also, the viability, T/C is 88.9% (second compound 1 µM, first compound 0.0316 µM); 97.4% (second compound 1 µM, first compound 0.1 µM); 94.4% (second compound 1 µM, first compound 0.316 µM); 93.3% (second compound 1 µM, first compound 1 µM); 88.1% (second compound 1 µM, first compound 3.16 µM); 72.6% (second compound 1 µM, first compound 10 µM). In addition, the viability, T/C reads like this: (second compound 3.16 µM, first compound 0.0316 µM) 89.1%; (second compound 3.16 µM, first compound 0.1 µM) 90.9%; (second compound 3.16 µM, first compound 0.316 µM) 96.7%; (second compound 3.16 µM, first compound 1 µM) 90.3%; (second compound 3.16 µM, first compound 3.16 µM) 91%; (second compound 3.16 µM, first compound 10 µM) 76.5%. Besides, the viability, T/C runs as follows: (second compound 10 µM, first compound 0.0316 µM) 87.2%; (second compound 10 µM, first compound 0.1 µM) 77.4%; (second compound 10 µM, first compound 0.316 µM) 81.2%; (second compound 10 µM, first compound 1 µM) 80.8%; (second compound 10 µM, first compound 3.16 µM) 77.5%; (second compound 10 µM, first compound 10 µM) 66.4%.

For the origin of these results see PubChem BioAssay AID2060492 (Molecular Pharmacology Branch, DTP, NCI, 2025).
